US10086066B2, “Tissue targeted antigenic activation of the immune response to treat cancers” (Qu Biologics Inc., priority 2004, dated 2018)

System: 4T1 mammary carcinoma cells
Assay: Indomethacin efficacy study QB35, 4T1 mammary carcinoma (tumour volume, CD11b+ cells)
Type: in vivo, mouse (Balb/c)
Protocol: In an effort to examine the efficacy of combining antigenic composition treatment with indomethacin. Briefly, experiments were designed wherein there were 10 mice in each of 4 groups with all treatments beginning on day 4 after tumour inoculation. All mice (Balb/c female) received 50,000 4T1 mammary carcinoma cells subQ on day 0. Thereafter, the 4 groups were treated as follows: 1) Indomethacin daily (in drinking water)+PBS subQ every 2 days; 2) Indomethacin daily (in drinking water)+S. aureus SSI subQ every 2 days; 3) Control vehicle daily (in drinking water)+PBS subQ every 2 days; and 4) Control vehicle daily (in drinking water)+S. aureus SSI subQ every 2 days.

SMILES: COc1ccc2c(c1)c(CC(=O)O)c(C)n2C(=O)c1ccc(Cl)cc1 [Indomethacin]
- frequency of CD11b+ cells in the tumors relative to the control (day 11, indomethacin daily in drinking water, with PBS or S. aureus SSI (FIG. 35)): significantly increased
- CD11b+ cells in the tumours (day 22 (FIG. 36)): increase
